Where “and” joins values, the source holds several entries; their conditions need not be identical. Equal entries are not always repeated.
Test system: 935938-334-R-J1-PDC complex spheroid viability
Test: Anticancer human tumor 935938-334-R-J1-PDC patient-derived small intestine adenocarcinoma cell line growth inhibition [POLQ]
Settings: for viability, T/C: stronger effect = lower value; for IC50: curve of compound
Procedure: Multicellular complex tumor spheroid response to Polymerase (POL) inhibitors (novobiocin, ART-558, RP6685) in combination with a variety of drugs and investigational agents in selected tumor cell lines
The POL inhibitors (novobiocin, ART-558, and RP6685) were evaluated both individually and in combination with standard of care and investigational anticancer small molecules within a complex spheroid model of solid tumors. . Complex spheroids include a stromal component modeled by human endothelial cells (HUVEC) and fibroblasts modeled by human mesenchymal stem cells (MSCs). The concentration ranges selected for each drug and investigational agent were based upon clinically achievable concentrations if the clinical Cmax of the agent was known.
Compounds. The drugs and investigational agents: novobiocin (NSC847541), ART-558 (NSC835418), RP-6685 (NSC848927), peposertib (NSC802822), ceralasertib (NSC780249), elimusertib (NSC800525), camonsertib (NSC841442), AZD-1390 (NSC803789), olaparib (NSC753686), talazoparib (NSC767125), rucaparib (NSC756644), sotorasib (NSC818433), MRTX-1133 (NSC836407), SN-38 (NSC673596), topotecan (NSC609699), epotoside (NSC141540), doxorubicin (NSC123127), gemcitabine (NSC613327), 5-fluorouracil (NSC19893), paclitaxel (NSC125973), vemurafenib (NSC761431), MSA-2 (NSC828583), SN-011 (NSC837082), adavosertib (NSC754352), prexasertib (NSC758257), carboplatin (NSC241240) and oxaliplatin (NSC266046), were obtained from the National Cancer Institute (NCI) Developmental Therapeutics Program Chemical Repository (21). The FDA-approved anticancer drug set is available from the Developmental Therapeutics Program at https://dtp.cancer.gov/organization/dscb/obtaining/. […] The stock solutions were prepared in dimethyl sulfoxide (DMSO, Sigma-Aldrich, St. Louis, MO, cat. D2650), except for the platinum compounds which were prepared in saline (Quality Biological, Gaithersburg, MD, cat. 114-055-101), at 800-fold the tested concentration and stored at -70 degrees C prior to their use. All drugs and investigational agents were tested over a range starting from a high concentration at or near the clinical Cmax and decreasing in half-log increments. If the clinical Cmax for an agent had not been determined, the highest concentration tested was 10 microM, except for SN-38, which was tested at a high concentration of 1 microM.
Cell Culture. All cells were maintained in an incubator at 37 degrees C and 5% CO2 with 95% humidity. The PDC lines were cultured according to standard operating procedures established by the NCI PDMR (https://pdmr.cancer.gov). Table 3 of the manuscript, lists the cell lines along with the number of the three cell types plated to form the mct-spheroids and media for tumor cell growth. After thawing, all PDC lines, except 997537-175-T-J1-PDC and 415267-285-R-J2-PDC, were cultured in Matrigel-coated flasks prepared with a working solution of 1X Ham's F-12 nutrient mix, without supplementation (Thermo Fisher Scientific, cat. 11765054), 100 U/mL penicillin-streptomycin (Thermo Fisher Scientific, cat. 15140122), and 2.5% Matrigel (Corning Inc., Corning, NY, cat. 354248) for the first three passages. The two PDC lines 997537-175-T-J1-PDC and 415267-285-R-J2-PDC were cultured on uncoated flasks. The 857933-349-R-J2-PDC line was cultured in 6C/Colon 1B media containing advanced DMEM/F-12 (Thermo Fisher Scientific, cat. 12634028), 10 mM HEPES (Thermo Fisher Scientific, cat. 15630080), 1X GlutaMAX supplement (Thermo Fisher Scientific, cat. 35050061), 0.1 mg/mL primocin (InvivoGen, San Diego, CA, cat. ant-pm-2), 10% defined fetal bovine serum, heat inactivated (HyClone Laboratories Inc., Logan, UT, cat. SH30070.03HI), 50% L-WRN conditioned media (ATCC, cat. CRL-3276), 1.25 mM N-Acetyl-L-cysteine (Sigma-Aldrich, cat. A9165), 10 mM nicotinamide (Sigma-Aldrich, cat. N0636), 1X B-27 supplement (Thermo Fisher Scientific, cat. 17504044), 1X N-2 supplement (Thermo Fisher Scientific, cat. […]
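Note: spheroids exposed to drugs for seven days before viability read.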
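Throughout, for viability, T/C: 100% = DMSO vehicle control wells.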

Compound	viability, T/C (compound 0.0316 µM)	viability, T/C (compound 0.1 µM)	viability, T/C (compound 0.316 µM)	viability, T/C (compound 1 µM)	viability, T/C (compound 3.16 µM)	viability, T/C (compound 10 µM)	IC50	viability, T/C (compound 0.00316 µM)	viability, T/C (compound 0.01 µM)	viability, T/C (compound 0.00949 µM)	viability, T/C (compound 0.03 µM)	viability, T/C (compound 0.0949 µM)	viability, T/C (compound 0.3 µM)	viability, T/C (compound 0.949 µM)	viability, T/C (compound 3 µM)	viability, T/C (compound 0.000316 µM)	viability, T/C (compound 0.001 µM)
C#Cc1c(F)ccc2cc(O)cc(-c3ncc4c(N5CC6CCC(C5)N6)nc(OCC56CCCN5CC(F)C6)nc4c3F)c12 (centres undefined)	94.5% and 100% and 95%	109% and 87.3% and 101%	78.4% and 86.1% and 85.4%	59.5% and 69% and 70.2%	64.2% and 46.4% and 44%	28.9% and 34.7% and 36.1%	3790 nM and 2850 nM and 2510 nM	–	–	–	–	–	–	–	–	–	–
C=CC(=O)N1CCN(c2nc(=O)n(-c3c(C)ccnc3C(C)C)c3nc(-c4c(O)cccc4F)c(F)cc23)C(C)C1 (centres undefined)	83.1% and 99.4% and 81.4%	94.9% and 68.4% and 69.6%	89.5% and 99.7% and 67.9%	89.7% and 115% and 113%	102% and 110% and 112%	99.6% and 131% and 105%	> 10000 nM	–	–	–	–	–	–	–	–	–	–
C=CCn1c(=O)c2cnc(Nc3ccc(N4CCN(C)CC4)cc3)nc2n1-c1cccc(C(C)(C)O)n1	98.9% and 94.2% and 106%	87.7% and 94.9% and 106%	90.8% and 93.2% and 71.3%	33.3% and 32.5% and 27.3%	–	–	694 nM and 719 nM and 552 nM	104% and 93.2% and 96.4%	122% and 109% and 68.7%	–	–	–	–	–	–	–	–
CC(=O)O[C@H]1C(=O)[C@@]2(C)[C@H]([C@H](OC(=O)c3ccccc3)[C@]3(O)C[C@H](OC(=O)[C@H](O)[C@@H](NC(=O)c4ccccc4)c4ccccc4)C(C)=C1C3(C)C)[C@]1(OC(C)=O)CO[C@@H]1C[C@@H]2O	–	–	–	–	–	–	< 9.49 nM and 10.6 nM	–	–	35.5% and 53.2% and 37.8%	18.7% and 20.8% and 19.2%	15.8% and 15.7% and 16%	12.4% and 16.4% and 17%	14.9% and 15.7% and 13.9%	17.9% and 19.1% and 19.5%	–	–
CC(C)n1c(=O)n(C)c2cnc3cc(F)c(-c4ccc(OCCCN5CCCCC5)nc4)cc3c21	75.1% and 94.3% and 79.1%	104% and 75.2% and 67.4%	103% and 102% and 65.2%	92.1% and 121% and 73.4%	113% and 120% and 72.1%	94.9% and 91.5% and 72.9%	> 10000 nM	–	–	–	–	–	–	–	–	–	–
CC1COCCN1c1cc(-c2ccnn2C)c2ccnc(-c3ccn[nH]3)c2n1 (centres undefined)	82.6% and 80.7% and 109%	48.1% and 37.2% and 43.2%	23.7% and 26.6% and 25.3%	19.7% and 18.6% and 15.1%	17.2% and 15.3% and 17.5%	19.2% and 18.9% and 18.3%	93.9 nM and 73.1 nM and 89.6 nM	–	–	–	–	–	–	–	–	–	–
CC1COCCN1c1cc(C2(O)CC3CCC(C2)O3)c2cnn(-c3ccn[nH]3)c2n1 (centres undefined)	84.1% and 74.7% and 60.4%	62.5% and 69.8% and 72.1%	45.6% and 32.8% and 34.3%	24.3% and 23.7% and 22.5%	15% and 14% and 18.6%	12% and 10.3% (2×)	216 nM and 187 nM and 180 nM	–	–	–	–	–	–	–	–	–	–
CC1COCCN1c1cc(C2(S(C)(=N)=O)CC2)nc(-c2ccnc3[nH]ccc23)n1 (centres undefined)	98.1% and 87.1% and 102%	112% and 108% and 84.7%	80.3% and 107% and 90.2%	85.9% and 79.2% and 65.2%	46.4% and 41.8% and 49.7%	24.2% and 18.7% and 17.1%	3130 nM and 2420 nM and 2820 nM	–	–	–	–	–	–	–	–	–	–
CCCS(=O)(=O)Nc1ccc(F)c(C(=O)c2c[nH]c3ncc(-c4ccc(Cl)cc4)cc23)c1F	113% and 92.8% and 116%	119% and 111% and 89.6%	115% and 103% and 106%	108% and 102% and 121%	96.3% and 131% and 129%	46.3% and 53.5% and 37.2%	9270 nM and > 10000 nM and 8230 nM	–	–	–	–	–	–	–	–	–	–
CC[C@@]1(O)C(=O)OCc2c1cc1n(c2=O)Cc2cc3c(CN(C)C)c(O)ccc3nc2-1	96.8% and 83.6% and 81.2%	49.7% and 61.4% and 63%	–	–	–	–	99.2 nM and > 100 nM	72.4% and 89.2% and 99%	103% and 118% and 92.3%	–	–	–	–	–	–	81.3% and 82.1% and 82.2%	103% and 107% and 86.1%
CCc1c2c(nc3ccc(O)cc13)-c1cc3c(c(=O)n1C2)COC(=O)[C@]3(O)CC	42.9% and 36.9% and 39.4%	31.1% and 30.2% and 33.9%	39.8% and 38.2% and 27.4%	35.2% and 33.7% and 25.6%	–	–	21.9 nM and 16.3 nM and 20.1 nM	59.3% and 81% and 86.5%	70.9% and 60% and 64%	–	–	–	–	–	–	–	–
CCc1cc2c(N3CCc4c(cc(Cn5ccnc5)cc4-c4cn(C)nc4C(F)(F)F)C3=O)cc(C)nc2c(OC)n1	63.3% and 77.3% and 86.5%	98.4% and 69.4% and 64.3%	72.6% and 62.2% and 67.1%	65.5% and 59.4% and 67.5%	65.5% and 71.2% and 67.9%	57.6% and 57% and 58.1%	> 10000 nM	–	–	–	–	–	–	–	–	–	–
